Data taken from patent US3984390A, “Novel process for producing phleomycin group antibiotics” (Zaidan Hojin Biseibutsu Kagaku Kenkyu Kai, priority 1972, dated 1976).

Legend:
[1] = tested on: Ehrlich ascites carcinoma; assay: Antitumor activity and toxicity in ICR-SLC mouse inoculated with Ehrlich ascites carcinoma, i.p. for ten consecutive days; assay type: in vivo; conditions: for Chemotherapeutic index: Table 5, ten consecutive days into peritoneal cavity, evaluated 50 days after beginning; for Chemotherapeutic index (LD50/ED50): Tables 2 to 4; for Chemotherapeutic index (LD50/ED50) / LD50 (50 % lethal dose) / ED50 (50 % effective dose): i.p., for 10 days, 72000 min; for LD50 (50 % lethal dose): Behrens-Karber method; for ED50 (50 % effective dose): maximum dose level within the range of longevity ratio of 100 to 200
Experimental: The phleomycin was administered for ten consecutive days into peritoneal cavity of a ICR-SLC mouse, into which Ehrlich ascites carcinoma had been inoculated. Fifty days after the beginning of the experiment, measurements were made for (1) the number of dead mouse owing to toxicity, (2) the number of survived mouse, (3) mean survival period in 50 days, and (4) the ratio of mean survival period to that of reference mouse multiplied by 100. The chemotherapeutic index was calculated from the values of ED50 (50 % effective dose) and LD50 (50 % lethal dose) which were obtained as given below.
ED50 value: The maximum dose level within the range of logevity ratio of 100 to 200.
LD50 value: Calculated according to Behrens-Karber method from the data of (1) and (2).
^(2) A bleomycin was administered for ten consecutive days into
peritoneal cavity of a ICR-SLC mouse, where Ehrlich ascites carcinoma had
been inoculated, and 50 days after the beginning of experiment the […]

[2] = tested on: Mycobacterium smegmatis 607; assay: Antimicrobial potency, cylinder agar plate method, Bleomycin A2 (copper-free base) assumed as 1000 U/mg; assay type: cell-based; conditions: for Antimicrobial potency: Mycobacterium smegmatis 607
Experimental: 1. Antimicrobial potency was assayed by a cylinder agar plate method on the basis of Bleomycin A2 (copper-free base) assumed as 1000 U/mg, using Mycobacterium smegmatis 607 as test organism.
^(1) Assayed by a cylinder-agar plate method using Mycobacterium
smegmatis 607 as test organism, the potency of bleomycin A2
(copper-free base) being assumed as 1000 unit/mg.
The resulting compound has 0.65 of Rf value of the Silica gel thin layer chromatograph (CH3 OH: 10 %-CH3 COONH4 : 10 %-NH4 OH = 10 : 9 : 1) and 0.53 of Rf value of the Avicel thin layer chromatography (n-C3 H7 OH : pyridine : CH3 COOH : H2 O = 15 : 10 : 3 : 12) which are same with those of the 3-morpholinopropylaminobleomycin. The antimicrobial activity to Mycobacterium smegmatis 607 by the cylinder-agar plate method (the standard copper-free bleomycin A2 free base 1,000 U/mg) was 605 U/mg.

[3] = 0.19 mg/kg/day for 10 days i.p.
[4] = 0.39 mg/kg/day for 10 days i.p.
[5] = 0.78 mg/kg/day for 10 days i.p.
[6] = 1.56 mg/kg/day for 10 days i.p.
[7] = 3.12 mg/kg/day for 10 days i.p.
[8] = 6.25 mg/kg/day for 10 days i.p.
[9] = 12.5 mg/kg/day for 10 days i.p.
[10] = 25.0 mg/kg/day for 10 days i.p.
[11] = bleomycins of Table 5, bleomycin A2 (copper-free base) = 1000 unit/mg

Substance: 3-Morpholinopropylaminobleomycin
- Average longevity (mean survival period in 50 days) [1, 3]: 11.8
- Longevity ratio (mean survival period to that of reference mouse multiplied by 100) [1, 3]: 97
- Toxicity, number dead/total number [1, 3]: 0/5
- Viability (after 50 days), number survived/total number [1, 3]: 0/5
- Average longevity (mean survival period in 50 days) [1, 4]: 11.8
- Longevity ratio (mean survival period to that of reference mouse multiplied by 100) [1, 4]: 97
- Toxicity, number dead/total number [1, 4]: 0/5
- Viability (after 50 days), number survived/total number [1, 4]: 0/5
- Average longevity (mean survival period in 50 days) [1, 5]: 33.0
- Longevity ratio (mean survival period to that of reference mouse multiplied by 100) [1, 5]: 270
- Toxicity, number dead/total number [1, 5]: 0/5
- Viability (after 50 days), number survived/total number [1, 5]: 2/5
- Average longevity (mean survival period in 50 days) [1, 6]: 36.6
- Longevity ratio (mean survival period to that of reference mouse multiplied by 100) [1, 6]: 300
- Toxicity, number dead/total number [1, 6]: 0/5
- Viability (after 50 days), number survived/total number [1, 6]: 3/5
- Average longevity (mean survival period in 50 days) [1, 7]: 45.2
- Longevity ratio (mean survival period to that of reference mouse multiplied by 100) [1, 7]: 370
- Toxicity, number dead/total number [1, 7]: 0/5
- Viability (after 50 days), number survived/total number [1, 7]: 4/5
- Average longevity (mean survival period in 50 days) [1, 8]: 34.2
- Longevity ratio (mean survival period to that of reference mouse multiplied by 100) [1, 8]: 280
- Toxicity, number dead/total number [1, 8]: 2/5
- Viability (after 50 days), number survived/total number [1, 8]: 3/5
- Average longevity (mean survival period in 50 days) [1, 9]: 30.4
- Longevity ratio (mean survival period to that of reference mouse multiplied by 100) [1, 9]: 249
- Toxicity, number dead/total number [1, 9]: 4/5
- Viability (after 50 days), number survived/total number [1, 9]: 1/5
- Average longevity (mean survival period in 50 days) [1, 10]: 12.4
- Longevity ratio (mean survival period to that of reference mouse multiplied by 100) [1, 10]: 102
- Toxicity, number dead/total number [1, 10]: 5/5
- Viability (after 50 days), number survived/total number [1, 10]: 0/5
- Chemotherapeutic index [1]: 21.7
- Chemotherapeutic index (LD50/ED50) [1]: 12.1
- LD50 (50 % lethal dose) [1]: 9.4 mg/kg/day
- ED50 (50 % effective dose) [1]: 0.78 mg/kg/day
- Antimicrobial activity to Mycobacterium smegmatis 607 ([2]; Referential Example, standard copper-free bleomycin A2 free base 1,000 U/mg): 605 U/mg
- Antimicrobial potency [2, 11]: 592 Unit/mg

Substance: 3-[3-N-(1-Phenylethyl)aminopropylamino]propylaminobleomycin
- Chemotherapeutic index [1]: 18.1
- Antimicrobial potency [2, 11]: 9470 Unit/mg

Substance: 3-S,S-Dimethylmercaptopropylaminophleomycin
- Average longevity (mean survival period in 50 days) [1, 3]: 18.0
- Longevity ratio (mean survival period to that of reference mouse multiplied by 100) [1, 3]: 123
- Toxicity, number dead/total number [1, 3]: 0/5
- Viability (after 50 days), number survived/total number [1, 3]: 0/5
- Average longevity (mean survival period in 50 days) [1, 4]: 21.0
- Longevity ratio (mean survival period to that of reference mouse multiplied by 100) [1, 4]: 144
- Toxicity, number dead/total number [1, 4]: 0/5
- Viability (after 50 days), number survived/total number [1, 4]: 0/5
- Average longevity (mean survival period in 50 days) [1, 5]: 29.0
- Longevity ratio (mean survival period to that of reference mouse multiplied by 100) [1, 5]: 199
- Toxicity, number dead/total number [1, 5]: 0/5
- Viability (after 50 days), number survived/total number [1, 5]: 2/5
- Average longevity (mean survival period in 50 days) [1, 6]: 36.8
- Longevity ratio (mean survival period to that of reference mouse multiplied by 100) [1, 6]: 252
- Toxicity, number dead/total number [1, 6]: 0/5
- Viability (after 50 days), number survived/total number [1, 6]: 3/5
- Average longevity (mean survival period in 50 days) [1, 7]: 44.0
- Longevity ratio (mean survival period to that of reference mouse multiplied by 100) [1, 7]: 301
- Toxicity, number dead/total number [1, 7]: 0/5
- Viability (after 50 days), number survived/total number [1, 7]: 4/5
- Average longevity (mean survival period in 50 days) [1, 8]: 33.8
- Longevity ratio (mean survival period to that of reference mouse multiplied by 100) [1, 8]: 232
- Toxicity, number dead/total number [1, 8]: 3/5
- Viability (after 50 days), number survived/total number [1, 8]: 1/5
- Average longevity (mean survival period in 50 days) [1, 9]: 13.0
- Longevity ratio (mean survival period to that of reference mouse multiplied by 100) [1, 9]: 89
- Toxicity, number dead/total number [1, 9]: 5/5
- Viability (after 50 days), number survived/total number [1, 9]: 0/5
- Average longevity (mean survival period in 50 days) [1, 10]: 8.6
- Longevity ratio (mean survival period to that of reference mouse multiplied by 100) [1, 10]: 59
- Toxicity, number dead/total number [1, 10]: 5/5
- Viability (after 50 days), number survived/total number [1, 10]: 0/5
- Chemotherapeutic index (LD50/ED50) [1]: 8.5
- Prolongation effect on the survival period of ICR-SLC mouse inoculated with Ehrlich ascites carcinoma ([1]; as shown in Tables 2 and 3): distinct prolongation effect
- LD50 (50 % lethal dose) [1]: 6.6 mg/kg/day
- ED50 (50 % effective dose) [1]: 0.78 mg/kg/day
- Antimicrobial potency ([2]; phleomycins of Table 1, Bleomycin A2 (copper-free base) = 1000 U/mg): 865 unit/mg

Substance: 3-(3-Piperidinopropylamino)propylaminobleomycin
- Chemotherapeutic index [1]: 16.8
- Antimicrobial potency [2, 11]: 3580 Unit/mg

Substance: 3-Pyrrolidinopropylaminobleomycin
- Chemotherapeutic index [1]: 19.2
- Antimicrobial potency [2, 11]: 1066 Unit/mg

Substance: 3-N-(3-Hydroxypropyl)aminopropylaminobleomycin
- Chemotherapeutic index [1]: 29.6
- Antimicrobial potency [2, 11]: 1021 Unit/mg

Substance: 3-Piperidinopropylaminobleomycin
- Chemotherapeutic index [1]: 14.4
- Antimicrobial potency [2, 11]: 1257 Unit/mg
